Data published in patent US9783547B2, “Water soluble 4-azapodophyllotoxin analogs” (CENTRE NATIONAL DE LA RECHERCHE SCIENTIFIQUE (CNRS), priority 2014, dated 2017).
“Also recorded” adds a separate entry of the source.

Tests used:
[1] = tested on: EAhy 926 endothelial cell line; test: Endothelial cell morphology evaluation (rounding up); format: cell-based; conditions: Homo sapiens, EA.hy 926; 2 h incubation; rounding up of more than 15% of cells; read-out: Cmarr EA.hy 926: lowest concentration at which cell rounding up was observed
Excerpt: To assess the effects of the compounds on the morphology of endothelial cells, the EAhy 926 endothelial cell line was used, which is derived from the fusion of human umbilical vein endothelial cells (HUVEC) with the permanent human cell line A549 (Edgell et al, Proc. Natl. Acad. Sci. U.S.A., 1983, vol 80, issue 12, 3734-3737). The EAhy 926 cell line is considered as a good representative of native HUVEC because it expresses most of the biochemical markers of parental HUVEC (Bouis et al., Angiogenesis., 2001, 4, 91-102). EAhy 926 cells were grown in DMEM containing 2 mM L-glutamine, 10% foetal bovine serum, 100 U/mL penicillin and 100 μg/mL streptomycin in a humidified atmosphere (37° C., 5% CO2). Exponentially growing EAhy 926 cells were plated onto 96 well plates at 5000 cells/100 μL/well. Twenty-four hours after plating, the medium was aspirated, and 100 μL of medium containing the test compound was added to the well containing the cells (in triplicate) and incubated for 2 h (37° C., 5% CO2). The highest concentration used was 100 μM followed by serial two-fold dilutions down to low nanomolar concentrations, if needed for the most morphologically active compounds. After the 2 h-incubation period, digital photographs were taken of representative centre areas of each well at a magnification of 100× and 200×. The results are presented as the minimum concentration that could elicit the rounding up of more than 15% of cells in a field in order to exclude normal mitotic cells which is less that 15% in control 1% DMSO treated cells. Triplicate concentrations on the same plate were routinely carried out. CA4 was included in the experiments as a positive internal standard.
Compounds of the invention were first tested on EAhy 926 endothelial cells, which are transformed HUVEC (human umbilical vein endothelial cells). These cells undergo a rounding up upon a short 2 hour exposure to vascular disrupting agents, e.g. combretastatin A4.

HepG2 = test: Cytotoxicity assay for human cancer cells (MTS); format: cell-based; conditions: HepG2 hepatocellular carcinoma, 72 h, read-out: IC 50 value
Description: (§1) Human cells were grown in DMEM medium supplemented with 10% fetal calf serum (Invitrogen), in the presence of penicillin, streptomycin and amphotericin B (Fungizone) in 75 cm^2 flask under 5% CO2. Cells were plated in 96-well tissue culture microplates at a density of 650 cells/well in 200 μl medium and treated 24 h later with the compound dissolved in DMSO at concentrations ranging from 0.5-10 μM applied using an automated benchstation (Beckman Biomek 3000). Controls received the same volume of DMSO as the test wells (1% final concentration). After a 72 h exposure time, MTS reagent (Promega) was added and incubated for 3 h at 37° C. and the absorbance was read at 490 nm. Results are expressed as the inhibition of cell proliferation calculated as the ratio [(OD490 treated/OD490 control)×100].

HCT15 = test: Cytotoxicity assay for human cancer cells (MTS); format: cell-based; conditions: HCT-15, HCT15 colon adenocarcinoma, 72 h, read-out: IC 50 value
Description: as §1

Lewis lung carcinoma = test: Antitumor activity in Lewis lung carcinoma bearing mice; conditions: for Drug death: deaths/animals; for Tumor Log10 cell kill: [(T − C)/3.32] × Td, Td 2.2 days
Description: Animal body weights included the tumor weights.
The percent T/C value is calculated as follows:

[2] = 50 mg/kg i.p. days 4-8 and 11-15
[3] = 55 mg/kg i.p. days 4-8 and 11-15
[4] = 55 mg/kg i.p. days 4-8 and 11-15, hydrochloride

## COc1cc(Nc2c3c(nc4cc5c(cc24)OCO5)CCCC3=O)cc(OC)c1OC.Cl [SGR307.HCl, 6,7-(Methylenedioxy)-9-(3,4,5-trimethoxyphenylamino)-3,4-dihydroacridin-1(2H)-one, hydrochloride]
[1]
  minimal effective concentration: 0.06 µM
HepG2
  IC50: 139 nM
HCT15
  IC50: 91 nM
Lewis lung carcinoma; [2]
  T − C (day), tumor growth delay: 4.5 days
  Time for median tumor to reach 500 mm^3: 14.1 days
  T/C day 18 (%): 36.2%
  Drug death: 0/5
Lewis lung carcinoma; 50 mg/kg i.p. days 4-8 and 11-15, range 297-2230
  Mean tumor volume (mm^3) on day 18 (range): 1158 mm^3
Lewis lung carcinoma; 50 mg/kg i.p. days 4-8 and 11-15, hydrochloride
  Note (activity / toxicity assessment): not toxic; also recorded: highly active
Lewis lung carcinoma; 50 mg/kg i.p. days 4-8 and 11-15, nadir d6
  Mean body wt change [g/mouse (day of nadir)]: −0.5 (d6) g/mouse
Lewis lung carcinoma; 50 mg/kg i.p., hydrochloride
  Tumor Log10 cell kill: 3
Lewis lung carcinoma; [3]
  Time for median tumor to reach 500 mm^3: 17.4 days
  T/C day 18 (%): 19.3%
  Drug death: 0/5
Lewis lung carcinoma; 55 mg/kg i.p. days 4-8 and 11-15, range 457-806
  Mean tumor volume (mm^3) on day 18 (range): 619 mm^3
Lewis lung carcinoma; [4]
  Note (activity / toxicity assessment): not toxic; also recorded: highly active
  T − C (day), tumor growth delay: 7.8 days
Lewis lung carcinoma; 55 mg/kg i.p. days 4-8 and 11-15, nadir d8
  Mean body wt change [g/mouse (day of nadir)]: −2.4 (d8) g/mouse
Lewis lung carcinoma; 55 mg/kg i.p.
  Tumor Log10 cell kill: 5.2
